Converted amounts (≈) assume the structure as drawn.

The target in data set [1] is Phosphatidylinositol 4,5-bisphosphate 3-kinase catalytic subunit alpha isoform (Mus musculus, UniProt P42337).
Description: Inhibition of mouse PI3Kalpha
In data set [2] the target is Serine/threonine-protein kinase mTOR (Homo sapiens, UniProt P42345).
Data set [3] in a line: physchem. Particulars: buffer, pH 6.5; call rule not given here.
The nature of data set [4]: Clearance in rat liver microsomes. Conditions: read-out: CLH. The class given is ADME, Microsome.
In data set [5] the test system is Liver microsomes. The experiment in a line: Drug metabolism in human liver microsomes assessed as CYP450-mediated GSH adduct formation in presence of GSH. The class given is ADME, Microsome.
In data set [6] the test system is Liver microsomes. The experiment in a line: Drug metabolism in human liver microsomes assessed as CYP450-mediated 4-(2-amino-4-methyl-7-oxo-6-(1H-pyrazol-4-yl)pyrido[2,3-d]pyrimidin-8(7H)-ylamino)butanoic acid formation. The class given is ADME, Microsome.
In data set [7] the test system is Liver microsomes. The experiment in a line: Drug metabolism in human liver microsomes assessed as CYP450-mediated GSH adduct formation in absence of GSH. The class given is ADME, Microsome.
Data set [8] is described as follows: Oral bioavailability in rat at 5 mg/kg. The class given is ADME, organism-based. Conditions: in vivo.
Data set [9] is described as follows: Cmax in rat at 5 mg/kg, po. The format is ADME, organism-based. Also on record: dose 5 mg/kg, route oral. Particulars: in vivo.
Data set [10] can be described thus: Half life in rat at 2 mg/kg, iv. Conditions: in vivo. Also noted: dose 2 mg/kg, route intravenous. The format is ADME, organism-based.
Data set [11] is described as follows: Clearance in rat at 2 mg/kg, iv. The class given is ADME, organism-based. Also noted: dose 2 mg/kg, route intravenous. Particulars: in vivo.
A short description of data set [12]: Volume of distribution at steady state in rat at 2 mg/kg, iv. The format is ADME, organism-based. Also noted: dose 2 mg/kg, route intravenous. Particulars: in vivo, read-out: Vdss.

Sequence of Phosphatidylinositol 4,5-bisphosphate 3-kinase catalytic subunit alpha isoform (P42337 whole entry, canonical isoform): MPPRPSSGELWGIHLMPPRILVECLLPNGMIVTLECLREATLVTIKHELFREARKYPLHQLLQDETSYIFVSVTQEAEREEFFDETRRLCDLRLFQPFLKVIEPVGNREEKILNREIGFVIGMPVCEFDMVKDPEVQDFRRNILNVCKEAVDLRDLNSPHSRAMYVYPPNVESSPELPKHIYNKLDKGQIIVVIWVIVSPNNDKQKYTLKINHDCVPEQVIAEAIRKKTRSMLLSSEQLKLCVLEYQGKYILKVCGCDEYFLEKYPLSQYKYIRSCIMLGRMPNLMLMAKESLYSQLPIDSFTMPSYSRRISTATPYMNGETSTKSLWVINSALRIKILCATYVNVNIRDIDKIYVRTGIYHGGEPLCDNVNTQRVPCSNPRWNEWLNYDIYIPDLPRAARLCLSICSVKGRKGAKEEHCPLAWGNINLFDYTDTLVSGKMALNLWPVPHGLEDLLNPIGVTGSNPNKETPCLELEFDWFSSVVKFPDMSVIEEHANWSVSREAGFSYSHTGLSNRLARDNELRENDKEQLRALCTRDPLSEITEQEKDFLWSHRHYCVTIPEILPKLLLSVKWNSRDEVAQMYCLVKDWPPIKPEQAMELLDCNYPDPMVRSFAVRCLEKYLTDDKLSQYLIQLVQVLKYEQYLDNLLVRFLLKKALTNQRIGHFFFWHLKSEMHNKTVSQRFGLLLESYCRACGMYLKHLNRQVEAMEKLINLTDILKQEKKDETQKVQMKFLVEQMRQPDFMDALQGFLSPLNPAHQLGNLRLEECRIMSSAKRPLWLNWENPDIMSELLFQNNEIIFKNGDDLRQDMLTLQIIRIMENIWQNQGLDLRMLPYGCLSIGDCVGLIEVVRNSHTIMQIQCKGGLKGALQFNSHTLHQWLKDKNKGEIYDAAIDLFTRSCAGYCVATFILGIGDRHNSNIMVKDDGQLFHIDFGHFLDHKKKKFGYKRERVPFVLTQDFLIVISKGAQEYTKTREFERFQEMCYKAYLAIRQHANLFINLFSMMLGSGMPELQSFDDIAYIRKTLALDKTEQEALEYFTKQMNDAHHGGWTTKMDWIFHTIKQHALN

Take `COc1ccc(-c2cc3c(C)nc(N)nc3n(C3CCCC3)c2=O)cn1`: the Ki worked out at 1.56 nM in [1] and 142 nM in data set [2]. This molecule gave a solubility (kinetic) in data set [3] of 3.94 µM (≈ 1.38 µg/mL).
The molecule `COc1ccc(-c2cc3c(C)nc(N)nc3n(C3CCC3)c2=O)cn1` registered a Ki in data set [2] of 76.4 nM. In data set [3], this molecule yielded a solubility (kinetic) of 11.1 µM (≈ 3.74 µg/mL).
Regarding `Cc1nc(N)nc2c1cc(-c1cn[nH]c1)c(=O)n2C1CCC1`, the Ki in data set [1] was found to be 7 nM; in [2], 51.2 nM. Also, the solubility (kinetic) in data set [3] stood at 13 µM (≈ 3.85 µg/mL).
Molecule `COc1ccc(-c2cc3c(C)nc(N)nc3n(C3CC3)c2=O)cn1` displayed a Ki in data set [1] of 26 nM. The same molecule came in with a kinetic solubility in data set [3] of 16.2 µM (≈ 5.24 µg/mL).
On to `Cc1nc(N)nc2c1cc(-c1cn[nH]c1)c(=O)n2C1CC1`, for which the Ki stood at 36 nM in [1] and 190 nM in [2]. This molecule yielded a kinetic solubility in data set [3] of 16.7 µM (≈ 4.71 µg/mL).
In the case of `Cc1nc(N)nc2c1cc(-c1cn[nH]c1)c(=O)n2C(C)C`, in data set [4], the microsomal CLint was 349 µL/min/mg. The Ki amounted to 13.5 nM in data set [1] and 23.5 nM in data set [2]. The molecule also showed a solubility (kinetic) in [3] of 43.4 µM (≈ 12.3 µg/mL).
As for `CCN(CC)n1c(=O)c(-c2cn[nH]c2)cc2c(C)nc(N)nc21`, the Ki in [1] came to 138 nM. In addition, the solubility (kinetic) in data set [3] amounted to 434 µM (≈ 136 µg/mL).
Take `Cc1nc(N)nc2c1cc(-c1cn[nH]c1)c(=O)n2NCC(C)C`: the inhibitory constant (Ki) in data set [1] amounted to 827 nM. In other words, the sub-micromolar range.
With `Cc1nc(N)nc2c1cc(-c1cn[nH]c1)c(=O)n2N1CCCC1`, the figures for the Drug metabolism entry in [5], in [6] and in data set [7] were “Not Active”, “Active” and “Not Active”, respectively. In data set [8], this molecule yielded a bioavailability of 52%. This molecule also yielded a Cmax in data set [9] of 0.144 ng/mL. The half-life in data set [10] is 54 min. In [11], this molecule returned a clearance of 36.3 mL/min/kg. Moreover, in [12], the Vd was 2.9 L/kg. For the same molecule, the Ki in data set [1] is 12.5 nM; in [2], 10.6 nM. Further, the solubility (kinetic) in data set [3] turned out to be 43.1 µM (≈ 13.4 µg/mL).
`COc1ccc(-c2cc3c(C)nc(N)nc3n(N3CCCC3)c2=O)cn1` displayed a Ki in [1] of 10 nM.

(Values after ChEMBL document CHEMBL2057195, “Design and synthesis of a novel pyrrolidinyl pyrido pyrimidinone derivative as a potent inhibitor of PI3Kα and mTOR” (Bioorg Med Chem Lett, 2012).)
